Reference: patent US20210292340A1, “CELL NECROSIS INHIBITOR, PREPARATION METHOD THEREFOR AND USE THEREOF” (SHANGHAI INSTITUTE OF ORGANIC CHEMISTRY, CHINESE ACADEMY OF …, priority 2018, published 2021)

What follows are compounds tested on Jurkat (FADD−/−) cells (assay: Inhibition of TNF-induced programmed Jurkat (FADD−/−) cell necrosis (Cell Titer-Glo)). Details: Homo sapiens, Jurkat, 20 h, TNF 10 ng/mL, intracellular ATP level, read-out: Cellular IC50 (M) Jurkat (FADD−/−).
Type: cell-based, human
Protocol: Two replicate wells were set for each concentration of each compound.
Jurkat (FADD^−/−) cells (human-derived peripheral blood leukemia T cell line, with FADD gene knocked out) were cultured in vitro. After growing to logarithmic growth phase, the cells were harvested, and centrifuged at 1000 rpm for 5 min. The supernatant was discarded, and the cells were resuspended in fresh medium and adjusted to a cell density of 5×10^5/mL. The cell suspension was added to the culture plate containing the drug (40 μL per well). In the treatment groups, 10 μL of TNF (tumor necrosis factor, final concentration 10 ng/mL) diluted with the cell culture medium was added to each well, and incubated for 20 h in a cell incubator (37° C., 5% CO2). Subsequently, 50 μL of Cell Titer-Glo solution was added to each well and incubated at room temperature for 10 min. Then, the luminescence was detected on BioTek plate reader to measure the intracellular ATP level. The effect of the test compounds in inhibiting TNF-induced cell necrosis was calculated from the full-activity well and background well (with the untreated DMSO control well as 100% cell viability), and the half inhibitory concentration (IC50) of the compound was calculated by Graphpad Prism statistical software.

Compound | IC50 [M]
CN1C(=O)[C@@H](NC(=O)c2ncn(Cc3ccccc3)n2)CSc2ccc3ncccc3c21 [RIP1-093] | 1.15e-09
CN1C(=O)[C@@H](NC(=O)c2cn(Cc3ccccc3)cn2)CSc2ccc3ncccc3c21 [RIP1-094] | 2e-09
CN1C(=O)[C@@H](NC(=O)c2cn(Cc3ccccc3)nn2)CSc2ccc3ncccc3c21 [RIP1-095] | 9.85e-09
CN1C(=O)[C@@H](NC(=O)c2cc(Cc3ccccc3)on2)CSc2ccc3ncccc3c21 [RIP1-096] | 1.38e-09
CN1C(=O)[C@@H](NC(=O)c2nnc(Cc3ccccc3)[nH]2)CSc2ccc3cnccc3c21 [RIP1-102] | 9e-10
CN1C(=O)[C@@H](NC(=O)c2ncn(Cc3ccccc3)n2)CSc2ccc3cnccc3c21 [RIP1-103] | 6.75e-09
CN1C(=O)[C@@H](NC(=O)c2cn(Cc3ccccc3)cn2)CSc2ccc3cnccc3c21 [RIP1-104] | 7.4e-10
CN1C(=O)[C@@H](NC(=O)c2cn(Cc3ccccc3)nn2)CSc2ccc3cnccc3c21 [RIP1-105] | 3.22e-09
CN1C(=O)[C@@H](NC(=O)c2cc(Cc3ccccc3)on2)CSc2ccc3cnccc3c21 [RIP1-106] | 7.47e-10
CN1C(=O)[C@@H](NC(=O)c2nnc(Cc3ccccc3)[nH]2)COc2cc3[nH]ccc3cc21 [RIP1-112] | 1.22e-09
CN1C(=O)[C@@H](NC(=O)c2ncn(Cc3ccccc3)n2)COc2cc3[nH]ccc3cc21 [RIP1-113] | 3.07e-10
CN1C(=O)[C@@H](NC(=O)c2cn(Cc3ccccc3)cn2)COc2cc3[nH]ccc3cc21 [RIP1-114] | 8.46e-10
CN1C(=O)[C@@H](NC(=O)c2cn(Cc3ccccc3)nn2)COc2cc3[nH]ccc3cc21 [RIP1-115] | 3.48e-09
CN1C(=O)[C@@H](NC(=O)c2cc(Cc3ccccc3)on2)COc2cc3[nH]ccc3cc21 [RIP1-116] | 5.16e-09
Cc1ccc(Cc2cc(C(=O)N[C@H]3COc4cc5occc5cc4N(C)C3=O)nn2C)cc1 [RIP1-124] | 2.09e-08
CN1C(=O)[C@@H](NC(=O)c2ncn(Cc3ccccc3)n2)COc2cc3nccnc3cc21 [RIP1-128] | 4.83e-07
CN1C(=O)[C@@H](NC(=O)c2cn(Cc3ccccc3)cn2)COc2cc3nccnc3cc21 [RIP1-129] | 7.94e-07
CN1C(=O)[C@@H](NC(=O)c2cn(Cc3ccccc3)nn2)COc2cc3nccnc3cc21 [RIP1-130] | 5.43e-08
Cc1ccc(Cc2cc(C(=O)N[C@H]3COc4cc5[nH]nnc5cc4N(C)C3=O)nn2C)cc1 [RIP1-141] | 2.19e-08
CN1C(=O)[C@@H](NC(=O)c2nnc(Cc3ccccc3)[nH]2)COc2cc3[nH]nnc3cc21 [RIP1-143] | 2.06e-07
CN1C(=O)[C@@H](NC(=O)c2n[nH]c(Cc3ccccc3)n2)COc2ccc3cccnc3c21 [RIP1-148] | 1.07e-08
O=C(N[C@H]1COc2ccc3cccnc3c2NC1=O)c1n[nH]c(Cc2ccccc2)n1 [RIP1-149] | > 2e-06
COc1ncnc2cc3c(cc12)N(C)C(=O)[C@@H](NC(=O)c1n[nH]c(Cc2c(F)cccc2F)n1)CO3 [RIP1-156] | 2.8e-08
COc1ncnc2cc3c(cc12)N(C)C(=O)[C@@H](NC(=O)c1n[nH]c(Cc2c(F)cc(F)cc2F)n1)CO3 [RIP1-157] | 2.49e-07

Compound | IC50 [M]
COc1ncnc2cc3c(cc12)N(C)C(=O)[C@@H](NC(=O)c1n[nH]c(Cc2ccc(F)cc2)n1)CO3 [RIP1-158] | 8e-09
COc1ncnc2cc3c(cc12)N(C)C(=O)[C@@H](NC(=O)c1n[nH]c(Cc2cccc(F)c2)n1)CO3 [RIP1-159] | 8.7e-09
COc1ncnc2cc3c(cc12)N(C)C(=O)[C@@H](NC(=O)c1n[nH]c(Cc2ccccc2F)n1)CO3 [RIP1-160] | 2.2e-09
CN1C(=O)[C@@H](NC(=O)c2n[nH]c(Cc3c(F)cccc3F)n2)COc2ccc3cnccc3c21 [RIP1-161] | 8.6e-09
CN1C(=O)[C@@H](NC(=O)c2n[nH]c(Cc3c(F)cc(F)cc3F)n2)COc2ccc3cnccc3c21 [RIP1-162] | 5.4e-08
CN1C(=O)[C@@H](NC(=O)c2n[nH]c(Cc3ccccc3F)n2)COc2ccc3cnccc3c21 [RIP1-163] | 1.3e-09
CN1C(=O)[C@@H](NC(=O)c2n[nH]c(Cc3ccc(F)cc3)n2)COc2ccc3cnccc3c21 [RIP1-164] | 3.3e-09
CN1C(=O)[C@@H](NC(=O)c2n[nH]c(Cc3cccc(F)c3)n2)COc2ccc3cnccc3c21 [RIP1-165] | 2.5e-09
CN1C(=O)[C@@H](NC(=O)c2n[nH]c(Cc3c(F)cccc3F)n2)COc2cc3[nH]nnc3cc21 [RIP1-166] | 2.98e-07
CN1C(=O)[C@@H](NC(=O)c2n[nH]c(Cc3ccc(F)cc3)n2)COc2cc3[nH]nnc3cc21 [RIP1-167] | 1.6e-06
CN1C(=O)[C@@H](NC(=O)c2n[nH]c(Cc3c(F)cccc3F)n2)COc2ccc3ncccc3c21 [RIP1-168] | 1.1e-08
CN1C(=O)[C@@H](NC(=O)c2n[nH]c(Cc3c(F)cc(F)cc3F)n2)COc2ccc3ncccc3c21 [RIP1-169] | 1.13e-07
CN1C(=O)[C@@H](NC(=O)c2n[nH]c(Cc3ccccc3F)n2)COc2ccc3ncccc3c21 [RIP1-170] | 1.74e-09
CN1C(=O)[C@@H](NC(=O)c2n[nH]c(Cc3ccc(F)cc3)n2)COc2ccc3ncccc3c21 [RIP1-171] | 1.4e-08
CN1C(=O)[C@@H](NC(=O)c2n[nH]c(Cc3cccc(F)c3)n2)COc2ccc3ncccc3c21 [RIP1-172] | 5e-09
CN1C(=O)[C@@H](NC(=O)c2n[nH]c(Cc3c(F)cc(F)cc3F)n2)COc2cc3occc3cc21 [RIP1-173] | 7e-08
CN1C(=O)[C@@H](NC(=O)c2n[nH]c(Cc3ccc(F)cc3)n2)COc2cc3occc3cc21 [RIP1-174] | 1.3e-08
COc1ncnc2cc3c(cc12)N(C)C(=O)[C@@H](NC(=O)c1cc(Oc2ccccc2)ccn1)CO3 [RIP1-175] | 1.46e-09
COc1ncnc2cc3c(cc12)N(C)C(=O)[C@@H](NC(=O)c1n[nH]c(Cc2cc(F)cc(F)c2)n1)CO3 [RIP1-176] | 6.9e-09
CN1C(=O)[C@@H](NC(=O)c2cc(Oc3ccccc3)ccn2)COc2cc3nccnc3cc21 [RIP1-177] | 2.03e-09
CN1C(=O)[C@@H](NC(=O)c2cc(Oc3ccccc3)ccn2)COc2ccc3cnccc3c21 [RIP1-178] | 3.23e-10
CN1C(=O)[C@@H](NC(=O)c2cc(Oc3ccccc3)ccn2)COc2ccc3ncccc3c21 [RIP1-179] | 6.7e-10
CN1C(=O)[C@@H](NC(=O)c2cc(Oc3ccccc3)ccn2)COc2cc3occc3cc21 [RIP1-180] | 2.66e-10
CN1C(=O)[C@@H](NC(=O)c2cc(Oc3ccccc3)ccn2)COc2cc3[nH]nnc3cc21 [RIP1-181] | 5.92e-10

Compound | IC50 [M]
CN1C(=O)[C@@H](NC(=O)c2n[nH]c(Cc3ccccc3)n2)COc2cc3ncoc3cc21 [RIP1-182] | 8.16e-10
CN1C(=O)[C@@H](NC(=O)c2n[nH]c(Cc3c(F)cccc3F)n2)COc2cc3ncoc3cc21 [RIP1-183] | 6.15e-09
CN1C(=O)[C@@H](NC(=O)c2n[nH]c(Cc3c(F)cc(F)cc3F)n2)COc2cc3ncoc3cc21 [RIP1-184] | 3.76e-08
CN1C(=O)[C@@H](NC(=O)c2n[nH]c(Cc3ccc(F)cc3)n2)COc2cc3ncoc3cc21 [RIP1-185] | 2.72e-09
CN1C(=O)[C@@H](NC(=O)c2cc(Oc3ccccc3)ccn2)COc2cc3ncoc3cc21 [RIP1-186] | 7.52e-10
CN1C(=O)[C@@H](NC(=O)c2n[nH]c(Cc3ccccc3)n2)COc2cc3ncnc(O)c3cc21 [RIP1-187] | 2.59e-07
CN1C(=O)[C@@H](NC(=O)c2cc(Oc3ccccc3)ccn2)COc2cc3ncnc(O)c3cc21 [RIP1-188] | 1.93e-07
CN1C(=O)[C@@H](NC(=O)c2cc(Oc3ccccc3)ccn2)COc2cc3[nH]ccc3cc21 [RIP1-189] | 1.93e-10
CN1C(=O)[C@@H](NC(=O)c2cc(Oc3ccccc3)ccn2)COc2cc3[nH]ncc3cc21 [RIP1-190] | 1.44e-10
CN1C(=O)[C@@H](NC(=O)c2cncc(Oc3ccccc3)c2)COc2ccc3ncccc3c21 [RIP1-193] | 2.95e-07
CN1C(=O)[C@@H](NC(=O)c2cccc(Oc3ccccc3)n2)COc2ccc3ncccc3c21 [RIP1-194] | 7.28e-06
CN1C(=O)[C@@H](NC(=O)c2ccnc(Oc3ccccc3)c2)COc2ccc3ncccc3c21 [RIP1-195] | 5.66e-06
CN1C(=O)[C@@H](NC(=O)c2ccc(Oc3ccccc3)cn2)COc2ccc3ncccc3c21 [RIP1-196] | > 2e-05
CN1C(=O)[C@@H](NC(=O)c2cc(Oc3ccc(F)cc3)ccn2)COc2ccc3ncccc3c21 [RIP1-197] | 2.92e-08
CN1C(=O)[C@@H](NC(=O)c2cc(Oc3c(F)cccc3F)ccn2)COc2ccc3ncccc3c21 [RIP1-198] | 4.57e-09
CN1C(=O)[C@@H](NC(=O)c2ccnc(Oc3ccccc3)n2)COc2ccc3ncccc3c21 [RIP1-199] | 4.76e-05
CN1C(=O)[C@@H](NC(=O)c2cc(Nc3ccccc3)ccn2)COc2ccc3ncccc3c21 [RIP1-200] | 8.18e-08
CN1C(=O)[C@@H](NC(=O)c2ccc(Nc3ccccc3)cn2)COc2ccc3ncccc3c21 [RIP1-201] | > 2e-05
CN1C(=O)[C@@H](NC(=O)c2ccnc(Nc3ccccc3)n2)COc2ccc3ncccc3c21 [RIP1-202] | > 2e-05
CN1C(=O)[C@@H](NC(=O)c2cc(Oc3ccccc3F)ccn2)COc2ccc3ncccc3c21 [RIP1-203] | 2.33e-09
CN1C(=O)[C@@H](NC(=O)c2cc(Oc3cccc(F)c3)ccn2)COc2ccc3ncccc3c21 [RIP1-204] | 3.04e-09
CN1C(=O)[C@@H](NC(=O)c2cc(Oc3cc(F)cc(F)c3)ccn2)COc2ccc3ncccc3c21 [RIP1-205] | 7.11e-09

Same assay, conditions: TNF 10 ng/mL, 20 h, intracellular ATP level; read-out: Cellular IC50 (M) Jurkat (FADD−/−)

Compound | IC50 [M]
CN1C(=O)[C@@H](NC(=O)c2n[nH]c(Cc3ccccc3F)n2)COc2ccc3ncccc3c21 [RIP1-170] | 3e-09
